Test results from PMC8533206 (Antioxidants, 2021).
“And” between values parts separate entries of the source, which are not always exact repeats. Equal values may be shown once. “Also recorded” adds a separate entry of the source.

Columns and labels:
[1] = target: T1, Human recombinant MAO-B (hMAO-B) (Homo sapiens, UniProt P27338); assay: MAO-B inhibition assay (Amplex Red fluorescence, benzylamine substrate); assay type: biochemical; conditions: for IC50: five doses 10, 1, 0.1, 0.01, 0.001 μM, triplicate; for Selectivity Index (SI): ratio of IC50 (MAO-A)/IC50 (MAO-B); for inhibition at 10 µM / % Inhibition of MAO-B at 10 µM: single dose 10 µM
T1 construct: purchased Sigma-Aldrich; host or cells: insect cells
T1 sequence (P27338 1-520): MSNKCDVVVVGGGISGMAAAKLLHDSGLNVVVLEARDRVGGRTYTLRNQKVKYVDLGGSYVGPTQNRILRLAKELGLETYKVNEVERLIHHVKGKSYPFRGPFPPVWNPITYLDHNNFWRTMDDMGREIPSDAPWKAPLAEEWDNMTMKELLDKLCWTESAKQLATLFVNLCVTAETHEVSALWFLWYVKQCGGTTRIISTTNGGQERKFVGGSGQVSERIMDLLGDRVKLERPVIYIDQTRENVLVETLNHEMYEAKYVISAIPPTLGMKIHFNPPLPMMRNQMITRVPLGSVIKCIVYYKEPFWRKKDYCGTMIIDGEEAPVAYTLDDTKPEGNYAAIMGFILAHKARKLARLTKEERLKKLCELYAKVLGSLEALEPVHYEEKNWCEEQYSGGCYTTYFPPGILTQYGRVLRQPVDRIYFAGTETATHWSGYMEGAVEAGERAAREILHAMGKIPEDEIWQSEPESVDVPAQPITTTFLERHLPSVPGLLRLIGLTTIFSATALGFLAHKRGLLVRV
Procedure: The biological evaluation of the tested compounds over both MAO-A and MAO-B was performed following the previously reported method. The MAO activity was measured in relative fluorescence units (RFU) evoked by peroxidase-catalyzed oxidation of Amplex Red® to resorufin, in which H2O2 generated by MAO reaction was used as the electron donor. Human recombinant MAO-A (hMAO-A) and MAO-B (hMAO-B) enzymes expressed in insect cells were obtained from Sigma-Aldrich. The 2 μL of test compound in DMSO (final concentration: 1–10 μM) was treated with 98 μL of hMAO enzyme solution in 50 mM sodium phosphate buffer (pH 7.4, final protein amounts: ~1.25 μg protein/well for MAO-A and ~2.5 μg protein/well for MAO-B) on 96-well black plate and incubated for 15 min at 37 °C. Then, 100 μL of reaction working solution which is a mixed solution of 400 μM Amplex Red® (Cayman, final concentration: 200 μM), 2 U/mL horseradish peroxidase (Sigma-Aldrich, final concentration: 1 U/mL) and 2 mM substrate (p-tyramine for MAO-A, benzylamine for MAO-B, Sigma-Aldrich, final concentration: 1 mM) in 50 mM sodium phosphate buffer (pH 7.4) were added and incubated for 20 min at 37 °C in the dark. The fluorescent intensity was quantified using a microplate reader (SpectraMax®i3, Molecular Device) with an excitation at 545 nm and an emission at 590 nm. The 50% inhibitory concentrations (IC50) of compounds were determined as the mean ± S.E.M. in triplicate from the dose-response inhibition curves using SigmaPlot® 13.0 (Systat Software Inc., San Jose, CA, USA).

hMAO-B enzyme = target: T2, hMAO-B enzyme (Homo sapiens, UniProt P27338); assay: Michaelis-Menten kinetic study of MAO-B inhibition mode; assay type: biochemical; conditions: for Type of MAO-B inhibition: Lineweaver-Burk plots intersect at y-axis; for Ki: benzylamine 0.065-4 mM, inhibitor 10, 30, 100 nM, read-out: Ki (inhibition constant), MAO-B
T2 construct: purchased Sigma-Aldrich; host or cells: insect cells
T2 sequence (P27338 1-520): T1 sequence (P27338 1-520)
Procedure: The type of MAO-B inhibition of the tested compounds was determined by Michaelis-Menten kinetic study following our recently reported study. The type of MAO-B inhibition of the tested compound(s) was determined by Michaelis–Menten kinetic study. The catalytic rates of the hMAO-B enzyme in the absence or in the presence of three different concentrations (10, 30, and 100 nM) of the tested compound were measured at seven different concentrations of the benzylamine (0.065, 0.125, 0.25, 0.5, 1, 2, and 4 mM). The corresponding progression curves and the Lineweaver-Burk plots were generated using GraphPad Prism 7 (GraphPad Software, Inc., La Jolla, CA, USA). The maximal velocity (Vmax), the Michaelis constant (Km), and the inhibition constant (Ki) were calculated using SigmaPlot® 13.0.
The initial rates of MAO-B inhibition in the absence and presence of the tested compound were measured at various concentrations (0.065, 0.125, 0.25, 0.5, 1, 2, and 4 mM) of benzylamine (a selective substrate for MAO-B). The corresponding progression curves and the Lineweaver-Burk plots were generated using GraphPad Prism 7. Both Michaelis–Menten and the Lineweaver-Burk plots were depicted in Figure 4 and Figure 5. […] The maximal velocity (Vmax), the Michaelis constant (Km), and the inhibition constant (Ki) were calculated using SigmaPlot®.

PC12 cells [2] = assay: Protective effect against 6-OHDA-induced cytotoxicity in PC12 cells (MTT); conditions: Rattus norvegicus, PC-12, read-out: IC50 against 6-OHDA-induced cytotoxicity
Procedure: (§1) PC12 cells were routinely maintained in RPMI-1640 media containing 100 IU/mL penicillin, and 100 μg/mL streptomycin supplemented by 10% heat-inactivated HS, 5% FBS in a humidified incubator containing 5% CO2 and 95% air at 37 °C [25]. The cell culture media was changed every two days. To perform experiments, cells were plated on poly-D-lysine/laminin-coated 24-well plates at a density of 3 × 10^5 cells/well and incubated for at least 24 h to allow cell adhesion.
(§2) To examine the effects of the test compounds on cell survival, cells were incubated in low serum media (1% HS, 1% FBS, 100 IU/mL penicillin, and 100 μg/mL streptomycin) with test compounds at the concentrations of 10 and 30 μM or an equivalent volume of vehicle control (DMSO at the final concentration of 0.3%) for 24 h. The media containing test compounds was sonicated at room temperature for 30 min to assure adequate dissolution in the media. […]
(§3) After the desired treatment, cell viability was determined by MTT assay as described previously, with slight modification. […] The absorbance of the dissolved solution was measured at 550 nm using a microplate reader (SpectraMax M2e, Molecular Devices, Sunnyvale, CA, USA). The cell viability was presented as the percentage of the absorbance measured in the vehicle-treated control cells. […]

PC12 cells [3] = assay: Protective effect against rotenone-induced cytotoxicity in PC12 cells (MTT); conditions: Rattus norvegicus, PC-12, read-out: IC50 against rotenone-induced cytotoxicity
Procedure: as §1, §2, §3

SMILES | IC50 [1] | Selectivity Index (SI) [1] | inhibition at 10 µM [1] [%] | Type of MAO-B inhibition (hMAO-B enzyme) | Ki (hMAO-B enzyme) [nM] | % Inhibition of MAO-B at 10 µM [1] [%] | IC50 (PC12 cells [2]) [nM] | IC50 (PC12 cells [3]) [nM]
O=C(Nc1ccc2c(c1)OCO2)c1ccc2[nH]ccc2c1 [Compound 8e, N-(benzo[d][1,3]dioxol-5-yl)-1H-indole-5-carboxamide] | 450 nM and 453 nM | >220 | 89.6 ± 0.4 |  |  |  |  | 
O=C(Nc1ccc(I)cc1)c1ccc2[nH]ccc2c1 [Compound 8a, N-(4-iodophenyl)-1H-indole-5-carboxamide] | 27.4 nM | >3649 | > 99 | competitive, and accordingly, reversible; also recorded: Competitive inhibition | 10.3 | 99.3 ± 0.0 |  | 
COC(=O)c1ccc2c(ccn2C(=O)c2ccc(Cl)c(Cl)c2)c1 [Compound 7b, Methyl 1-(3,4-dichlorobenzoyl)-1H-indole-5-carboxylate] | 330 nM and 328 nM | >305 | 84.1 |  |  |  |  | 
O=C(Nc1ccc(Br)cc1)c1ccc2[nH]ccc2c1 [Compound 8b, N-(4-bromophenyl)-1H-indole-5-carboxamide] | 30 nM and 30.5 nM | >3278 | > 99 | competitive, and accordingly, reversible; also recorded: Competitive inhibition | 6.63 | 99.4 ± 0.0 | 2800 | 3300
